According to patent publication US5496805A, “Inhibitors of neutral endopeptidase” (priority 1990, dated 1996):
Ends that are not written are not given here.

What was measured:
[1] = tested on: conscious mineralocorticoid hypertensive rats; assay: depressor response in conscious mineralocorticoid hypertensive rats; assay type: in vivo, rat (male Sprague-Dawley); details: dose 300 μmole/kg., intravenous; DOCA hypertensive rats; MAP recorded for at least 4 hours
Method: The depressor response to test compounds in conscious mineralocorticoid hypertensive rats is determined according to the following procedure.
Male Sprague-Dawley rats (approximately 150 grams) are anesthetized with sodium pentobarbital and indwelling vascular catheters are implanted in the abdominal aorta and vena cava using the methods of Weeks et al., Biological Medicine, Vol. 104, p. 646 (1960).
Before closing the abdominal incision, a pellet containing 100 mg. of deoxycorticosterone acetate (DOCA) is placed in the peritoneal cavity. DOCA is released from the pellet at a constant rate for 21 days.
The rats are housed individually and given saline (0.9% sodium chloride) to drink and fed normal rat chow for the next 3 to 4 weeks. Afterwards, the catheters are opened and mean arterial pressure (MAP) is measured via a Statham pressure transducer and a strip chart recorder. Patency of the arterial catheter is maintained by the infusion of saline from a pressurized reservoir at approximately 10 to 15 μl/min.
Following 2 hours of acclimation, the test compound is injected intravenously. Each dose is delivered as 1.0 ml./kg. +0.03 ml. (an amount sufficient to fill the void volume of the catheter). The MAP is recorded for at least 4 hours.

[2] = target: T1, neutral endopeptidase (Rattus norvegicus, UniProt P07861); assay: biochemical; details: enzyme purified from rat kidney; Dns-Gly-Phe-Arg 0.5 mM; pH 7.5; 37°, 30 minutes; inhibitor preincubated 10 minutes
T1 sequence (P07861 1-750): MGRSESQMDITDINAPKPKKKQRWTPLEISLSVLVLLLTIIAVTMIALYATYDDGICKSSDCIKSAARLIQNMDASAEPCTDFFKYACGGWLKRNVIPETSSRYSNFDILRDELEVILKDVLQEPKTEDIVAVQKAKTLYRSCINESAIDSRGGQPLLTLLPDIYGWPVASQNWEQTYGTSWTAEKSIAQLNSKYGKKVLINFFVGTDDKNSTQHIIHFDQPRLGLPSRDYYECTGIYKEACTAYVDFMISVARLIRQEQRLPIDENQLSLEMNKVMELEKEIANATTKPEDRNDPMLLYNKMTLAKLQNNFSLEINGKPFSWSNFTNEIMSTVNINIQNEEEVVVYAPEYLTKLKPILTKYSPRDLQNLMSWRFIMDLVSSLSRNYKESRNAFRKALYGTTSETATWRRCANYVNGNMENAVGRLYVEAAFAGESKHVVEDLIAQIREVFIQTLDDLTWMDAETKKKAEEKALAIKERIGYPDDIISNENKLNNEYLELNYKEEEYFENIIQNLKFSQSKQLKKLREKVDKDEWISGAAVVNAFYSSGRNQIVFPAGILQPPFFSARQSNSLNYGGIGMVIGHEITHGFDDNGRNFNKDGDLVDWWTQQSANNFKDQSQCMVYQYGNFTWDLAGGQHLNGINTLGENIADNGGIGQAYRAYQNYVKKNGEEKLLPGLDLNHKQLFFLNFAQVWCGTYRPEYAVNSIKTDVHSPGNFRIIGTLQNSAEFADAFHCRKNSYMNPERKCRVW
Method: The in vitro neutral endopeptidase activity is determined using a fluorometric assay procedure. The assay is based upon the cleavage of the fluorescent dansylated tripeptide Dns-Gly-Phe-Arg to form Dns-Gly. The latter is extracted from the acidified mixture by ethyl acetate and is strongly fluorescent.
The incubation mixture employed for the assay contains the substance Dns-Gly-Phe-Arg (0.5 mM), tris(hydroxymethyl)aminomethane -HCl buffer (pH 7.5, 50 mM), an enzyme preparation in 0.05% Triton X-100, and water or inhibitor diluted to a final volume of 0.25 ml. The enzyme preparation is purified from rat kidney according to the procedure described by Almenoff et al. in Biochemistry Vol. 22, p. 590-599 (1983). The inhibitor is preincubated for 10 minutes with the enzyme preparation and buffer before the reaction is initiated by the addition of the substrate. Incubation is carried out at 37° for 30 minutes and the reaction is stopped by the addition of 0.25 ml. 1N HCl and extraction of the Dns-Gly product into 1.5 ml. of ethyl acetate. Relative fluorescent intensity (RFI) of the ethyl acetate extract is measured using a Ferrand Spectofluorometer at excitation and emission wavelengths of 342 and 508 nm., respectively, corrected for the RFI of a zero-time control, and compared with assays lacking inhibitor.
Runs are made at different concentrations of test compound and by use of a mathematical model the IC50 is determined. The IC50 is the concentration of test compound that inhibits activity of the enzyme by 50%.

[3] = tested on: conscious spontaneously hypertensive rats (SHR); assay: enhancement of the depressor response to exogenous ANP 99-126 in conscious spontaneously hypertensive rats (SHR); assay type: in vivo, rat (male SHR); details: intravenous, 30 minutes before 3 nmole/kg. ANP 99-126; dose to increase the area under the blood pressure over time curve to 600 mm Hg. X minute
Method: The capacity of the test compounds to enhance the depressor response to exogenous ANP 99-126 in conscious spontaneously hypertensive rats (SHR) is determined according to the following procedure.
Indwelling vascular catheters are implanted in the abdominal aorta and vena cava of male SHR rats using the methods of Weeks et al. The rat is allowed at least one week recovery time. On the day of the experiment, the aortic catheter is opened and attached to a Statham transducer via a 3-way stream divider. This system allows for a continuous slow infusion of saline (approximately 10 to 15 μl/min.) from a pressurized reservoir to maintain patency of the arterial catheter. Mean arterial pressure (MAP) is continuously monitored on a strip-chart recorder.
Two hours after beginning the blood pressure measurements, the test compound (or the vehicle used to dissolve the compound) is injected intravenously (1.0 ml./kg.) and flushed in with 0.3 ml. of saline. 30 minutes later, a challenge of 3 nmole/kg. of ANP 99-126 is delivered (1.0 ml./kg. +0.3 ml. saline flush). Sufficient time is allowed after the ANP 99-126 injection to observe the maximal depressor response and a 50% recovery.
MAP is determined before ANP 99-126 administration and at 5 minute intervals until the blood pressure recovers by at least 50%. A mathematical model is used to calculate the area under the curve which extends from the time that the MAP falls to 50% of the maximal depressor response to the time of 50% recovery. Results are plotted as the log dose of inhibitor vs. the area under the curve.
The ED600 is the dose required to increase the area under the blood pressure over time curve for exogenous ANP to 600 mm Hg. X minute.

[4] = tested on: conscious spontaneously hypertensive rats; assay: renal function (sodium excretion) following intravenous administration of test compounds; assay type: in vivo, rat
Method: The renal function following administration of test compounds is determined according to the following procedure.
A catheter is contructed as follows. Pieces of 18 gauge metal tubing (about 1/4 inch in length) are inserted into two lengths of microbore Tygon tubing (0.04 inch inner diameter ×0.07 inch outer diameter). A short segment of Tygon tubing of larger diameter (0.104 inch inner diameter x 0.144 inch outer diameter) is sealed around both metal fittings. This end is to be implanted in the bladder. In order to keep the tip from becoming plugged by particulate matter, 4 holes are punched along its length.
To implant the catheters, male rats are anesthetized with sodium pentobarbital and the urinary bladder is exposed via a midline abdominal incision. A small slit is made in the dome of the urinary bladder and the tip of the catheter is inserted into the lumen. […]
During the course of the experiment, urine is collected in tared containers at specified intervals. Urine volume is determined gravimetrically (1 gram =1 ml.) and the rate of flow is calculated from the total volume/time of collection (ml./min). Sodium concentrations are measured using a Nova-1 Ion Selective Electrode Analyzer. Electrolyte excretion rates (μ Eq./min.) are calculated by multiplying the ion concentration (μ Eq./ml.) by the urine flow (mi./min.). […]

[5] = tested on: pig kidney microvillar membranes; details: in vitro; cited from earlier work
[6] = tested on: neutral endopeptidase; details: in vivo; cited from earlier work
[7] = tested on: neutral endopeptidase; assay: inhibition of neutral endopeptidase; assay type: biochemical
[8] = tested on: enkephalinase; details: cited from earlier work
[9] = tested on: man; details: cited from earlier work

| Compound | Change in MAI [1] | IC50 [2] | ED600 [3] | other results |
| --- | --- | --- | --- | --- |
| CC(C)CC(CS)C(=O)N[C@@H](Cc1c[nH]c2ccccc12)C(=O)O (mixture of isomers) [Example 35, (±)-N-[2-(Mercaptomethyl)-4-methyl-1-oxopentyl]-L-tryptophan] | -56 ± 3 mm. of Hg. | 6.9 nM | 9.2 µmol/kg |  |
| C[C@H](NC(=O)C(CS)Cc1ccccc1)C(=O)N1CCC[C@H]1C(=O)O (mixture of isomers) [Example 64, (±)-1-[N-[2-(Mercaptomethyl)-1-oxo-3-phenylpropyl]-L-alanyl]-L-proline] | -44 ± 5 mm. of Hg. | 6 nM |  |  |
| CC(C)C[C@H](NC(=O)C(CS)Cc1ccccc1)C(=O)O (single isomer, unassigned; isomer a) [Example 1, N-[2-(Mercaptomethyl)-1-oxo-3-phenylpropyl]-L-leucine (Isomer A)] | -65 ± 14 mm. of Hg. |  | 22.8 µmol/kg | increase in sodium excretion ([4]; intravenous 100 mg./kg.): 2.4 fold |
| CC(C)C[C@H](NC(=O)C(CS)Cc1ccccc1)C(=O)O (single isomer, unassigned; isomer b) [Example 36, N-[2-(Mercaptomethyl)-1-oxo-3-phenylpropyl]-L-leucine (isomer B)] |  |  | 8.22 µmol/kg |  |
| C[C@H](CS)C(=O)N[C@@H](Cc1ccccc1)C(=O)O [Example 39, (S)-N-(3-Mercapto-2-methyl-1-oxopropyl)-L-phenylalanine] | -55 ± 4 mm. of Hg. | 15 nM |  |  |
| O=C(O)CCCCCCNC(=O)C(CS)Cc1ccccc1 (centres unmarked) [Example 52, 7-[[2-(Mercaptomethy1)-1-oxo-3-phenylpropyl]amino]-heptanoic acid] | -41 ± 8 mm. of Hg. | 26 nM | 15.5 µmol/kg | increase in the rate of sodium excretion ([4]; intravenous 30 mg./kg. plus 3 mg./kg./min. for 20 minutes, conscious spontaneously hypertensive rats): 2.6 fold |
| C[C@H](NC(=O)[C@@H](S)Cc1ccccc1)C(=O)N1CCC[C@H]1C(=O)O [Example 66, (S)-1-[N-(2-Mercapto-1-oxo-3-phenylpropyl)-L-alanyl]-L-proline] |  | 78 nM | 2.93 µmol/kg |  |
| CC(C)C[C@H](NP(=O)(O)O[C@@H]1O[C@@H](C)[C@H](O)[C@@H](O)[C@H]1O)C(=O)N[C@@H](Cc1c[nH]c2ccccc12)C(=O)O [Example 72, N-(α-L-Rhamnopyranosyloxyhydroxyphosphinyl)-L-leucyl-L-tryptophan] |  | 3.8 nM |  | hydrolysis of α-human atrial natriuretic peptide [5]: suppressed; excretion of kinins [6]: increased excretion of kinins; sodium excretion [6]: increased sodium excretion; urinary kininase activity [6]: decreased urinary kininase activity; urine volume [6]: increased urine volume; inhibition of neutral endopeptidase [7]: inhibits neutral endopeptidase |
| O=C(O)CNC(=O)C(CS)Cc1ccccc1 (centres unmarked) [thiorphan, [(D,L)-3-mercapto-2-benzylpropanol]glycine] |  |  |  | inhibitor of enkephalinase in vitro [8]: nanomolar concentrations |
| human ANF 99-126: putative circulating hormone in man, a 28 amino acid peptide called human ANF 99-126 (SLRRSSCFGGRMDRIGAQSGLGCNSFRY; ends and bridges not checked; cysteine pairing not given here; UniProt P01160 124-151, looked up) |  |  |  | effect of exogenous administration to man [9]: diuresis, natriuresis, and a fall in blood pressure |
